Test results: patent US20240368563A1, “IN VITRO METHOD OF INVASIVE AND DUCTAL CELL GROWTH” (Helmholtz Zentrum München - Deutsches Forschungszentrum Für …, priority 2021, published 2024)

What was measured:
Format in all cases: cell-based
[1] = system: human mammary luminal progenitor (LP) cells; assay: Live-cell imaging of LP-derived organoids during elongation phase (cell movement, bead displacement, duct elongation)
Procedure: Live cell imaging was performed using a Leica SP8 lightning confocal microscope with an on-stage incubation system (Ibidi) regulating CO2, O2, humidity and temperature. Organoids were imaged during elongation phase between day 7 and 9 with a time separation of 10 min between each acquired image. For visualization, nuclei were labelled with 10 μM sirDNA (Spirochrome AG) 3 hours prior to the measurements. Accordingly, organoids were excited at 633 nm and the fluorescent signal was collected around 674 nm using a HCX PL APO 10×/0.40 CS dry objective. Bead displacements/deformation fields were visualized using ImageJ 1.48v. First, the fluorescence signal of the fluorescent nuclei at the first time step was summed up along the z-axis to visualize the shape of the organoid. Second the fluorescence channel of the beads was summed along the z-axis and subsequently summed up over all time steps. At last, both calculated pictures were merged into one image. Bead tracking was calculated using Matlab R2020b. First, the fluorescence channel of the beads was masked by an intensity threshold to reduce the background. Second, bead positions are defined by taking the center of an interpolated intensity grid. Third, individual bead tracks were calculated by matching bead coordinates in three consecutive images. Thereby, beads touching the boundaries or beads to close to each other were excluded to guarantee a correct tracking.
Analysis for structure prevalence, type, size and complexity was performed with GraphPad Prism 8. Nuclei velocity within the organoid was calculated via optical flow using the in Matlab implemented Farneback algorithm. By defining the branch axis, the velocities were separated in a parallel and orthogonal component. The directionality of nuclei migration was defined by calculating the ratio of parallel and orthogonal component. Consequently, at directionality equal to one parallel and orthogonal component are at the same order of magnitude. At higher or lower values, either parallel or orthogonal velocity component dominates. In order to visualize the migration patterns of individual cells, cells were manually tracked. Therefore, each nucleus was tracked three times and the resulting average path was calculated.
Collagen degradation via MMPs was inhibited by using 10 μM Marimastat (Merck, 444289), which was added to the medium of elongating organoids prior to imaging. E-cadherin blocking was performed by addition of an E-cadherin blocking-antibody HECD1 in a dilution of 1:25 after 5 d of organoid culture.

[2] = system: human mammary luminal progenitor (LP) cells; assay: Immunofluorescence of polarization markers in LP-derived organoids; settings: BLOM-medium without Y-27632
Procedure: 2D cells for immunofluorescence were cultured in 96-wells with optically clear bottom (PerkinElmer, 6005550). Immunofluorescence was performed as described previously^35,63. In brief, 2D cells or 3D cells (in collagen type I gels) were fixed with 4% paraformaldehyde for 15 min. Cells were permeabilized with 0.2% Triton X-100 for 2 min (2D) and 10 min (3D) respectively. Blocking was performed with 10% donkey serum in 0.1% BSA for 1 hr (2D) and overnight at 4° C. (3D) respectively. Primary antibodies in 0.1% BSA were incubated for 1 hr (2D) and overnight at 4° C. (3D) respectively. Next, DAPI (167 ng/ml) was added for 2 min (2D) and 10 min (3D), respectively. Finally, Aqua-Poy/Mount mounting medium (Polysciences, 18606) was added to preserve staining. Three PBS washing steps were performed in between all steps described above. Images of cells grown in 2D were acquired on an Axio Imager. A M2m imaging microscope was used with a 40× objective. Images of cells grown in 3D were acquired on FLUOVIEW FV1000 inverted confocal laser scanning microscope equipped with four laser lines (405, 488, 543, and 633 nm) using UPLSAPO 60×, 40× and 20× objective lenses. Images were processed with Gimp 2.8.22 and ImageJ 1.52i.

[3] = system: human mammary luminal progenitor (LP) cells; assay: Branched structure formation of single LP cells in collagen type I gels (carmine staining, quantification of structure type, size, complexity)
Procedure: Healthy mammary gland tissue was provided by the Nymphenburg Clinic for Plastic and Aesthetic Surgery and processed in accordance with the regulations of the ethics committee of the Ludwig-Maximilian University, Munich, Germany (proposal 19-989) as described previously^35,63. In brief, reduction mammoplasty tissue was minced with scalpels into 2-3 mm^3 pieces. Next, tissue was digested with 300 U/mL collagenase I and 100 U/mL hyaluronidase and 1 μg/mL insulin for approximately 16 hrs. Finally, fragments were either cryopreserved immediately or a single cell suspension was made using trypsin-EDTA and dispase. If cells were cryopreserved as fragments, they were turned into a single cell suspension upon thawing using trypsin-EDTA and dispase. Prior to experiments, single cell suspensions were filtered through a 40 μm cell strainer. Age and parity of donors used in this study are catalogued in Table 1 given directly below.
3D collagen type I gels were prepared as described previously^35,63 with modifications. Single cell suspensions were mixed with BLOM foundation, rat tail collagen type I (Corning) and neutralizing solution. The final collagen concentration was 1.3 mg/ml. If the pH of the solution was <7.4, the pH was adjusted by addition of NaOH (1 M) up to a volume of 1 μl per 100 μl polymerization solution. After polymerization for 1 hr, 2× concentrated full medium was added onto the gels in a 1:1 volume ratio to the gel. Gels were encircled with a pipette tip for detachment. For cells that had not been in culture previously, the first medium exchange (from now on with 1× concentrated medium) was done after 5 d and then every 2-3 d. In case of cells that had been in 2D culture before, the first medium exchange was done between 3 d and 5 d. For all experiments except ELDA, per 1 ml of gel, between 250 and 2000 LP cells were seeded. In case of B+ and LM cells, between 2000 and 7500 cells were seeded per 1 ml of gel.
Images of carmine stained structures were evaluated with ImageJ. The size of an organoid was determined with the ImageJ area tool. Here, all tips of the structure were virtually connected with the ImageJ area tool and size was defined as the area covered by the organoid. For assessment of complexity, the longest branch was identified within each structure. The hierarchy of all other branches relative to this longest branch was classified (see FIG. 6B).
Carmine staining solution was prepared with a concentration of 0.5 g/l carmine and 1.15 g/l aluminium potassium sulfate in distilled water. For staining of 3D structures, gels were fixed with 4% paraformaldehyde for 15 min and incubated with carmine staining solution overnight. Images were acquired on a Leica DM IL LED microscope using a HiPlan 10×/0.22 PH1 objective. Three PBS washing steps were performed in between all steps described above.

[4] = 10 μM Marimastat during branch elongation phase

## C[C@@H](N)[C@H]1CC[C@H](C(=O)Nc2ccncc2)CC1 [Y-27632]
[1]; in the presence of ROCK inhibitor, collagen gels spiked with fluorescent beads
  bead displacement / contractility (in words): not completely abolished, but limited to the front of elongating branches
[1]; under ROCK inhibition (with Y-27632), nuclear labelling
  directionality of cell migration within organoids (in words): primarily directed outwards in parallel to the axis of the extending branch
[2]
  apical-basal polarization of organoids (laminin, F-actin, lumen) (in words): polarization was disturbed in the absence of ROCK inhibition
[3]; BLOM-medium without Y-27632 (DMSO ctrl) vs with Y-27632 (5 μM), donors M35, M44, M45
  decrease in branched structure formation upon removal of Y-27632: 79%
[3]; BLOM-medium without Y-27632 (DMSO ctrl) vs with Y-27632, size = area covered by organoid
  change in size of branched structures upon removal of Y-27632: −66%
[3]; control organoids in BLOM-medium with Y-27632 (only 6% without Y-27632)
  organoids with tertiary or even more complex branches: 65%
[3]; medium deprived of Y-27632
  formation of elongated branched structures (in words): prevented the formation of elongated branched structures almost completely

## CNC(=O)[C@@H](NC(=O)[C@H](CC(C)C)[C@H](O)C(=O)NO)C(C)(C)C [Marimastat]
[1]; [4]
  duct elongation / invasion of branch tips (in words): stopped the branch tips from further invading the matrix
  general cytotoxic effect (in words): excluding a general cytotoxic effect

## Cc1ccc2c(c1)C(=O)[C@]1(O)CCN(c3ccc(N)cc3)C1=N2 [PAB, para-amino blebbistatin]
[3]; BLOM-medium without Y-27632, PAB added, donors M16, M28, M44
  branched structure phenotype when Y-27632 is replaced by PAB (in words): able to induce a phenotype similar to the one created by Y-27632
